{"source": "ChEMBL document CHEMBL4831500", "about": "“Discovery of first-in-class imidazothiazole-based potent and selective ErbB4 (HER4) kinase inhibitors” (Eur J Med Chem, 2021)", "key": {"[1]": {"molecular_target": "Tyrosine-protein kinase JAK3 (Homo sapiens, UniProt P52333)", "experiment": "Inhibition of JAK3 (unknown origin) incubated for 40 mins in presence of Mg/ATP mix by [gamma p33]-ATP based scintillation counting method"}, "[2]": {"tested_on": "Panel NCI-60 (60 carcinoma cell lines)", "experiment": "Growth inhibition of human panel NCI-60 (60 carcinoma cells) assessed as growth percent at 10 uM measured after 48 hrs by SRB assay relative to control", "assay_type": "functional", "conditions": "read-out: Activity"}, "[3]": {"molecular_target": "T1, Mitogen-activated protein kinase 10 (Homo sapiens, UniProt P53779)", "T1 sequence (P53779 whole entry)": "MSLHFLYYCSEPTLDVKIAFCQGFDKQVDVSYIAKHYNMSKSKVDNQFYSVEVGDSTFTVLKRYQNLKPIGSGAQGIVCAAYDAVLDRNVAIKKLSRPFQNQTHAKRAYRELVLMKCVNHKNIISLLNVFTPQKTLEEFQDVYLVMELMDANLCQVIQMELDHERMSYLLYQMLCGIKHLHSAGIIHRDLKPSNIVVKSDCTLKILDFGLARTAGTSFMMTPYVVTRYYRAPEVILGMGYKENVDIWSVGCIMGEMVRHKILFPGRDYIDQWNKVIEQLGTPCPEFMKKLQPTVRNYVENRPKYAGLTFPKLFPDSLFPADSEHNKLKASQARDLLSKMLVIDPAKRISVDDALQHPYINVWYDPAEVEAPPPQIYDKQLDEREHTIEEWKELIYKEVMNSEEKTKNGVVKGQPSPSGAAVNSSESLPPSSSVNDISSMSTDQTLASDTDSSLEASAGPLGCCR", "experiment": "Inhibition of JNK3 (unknown origin) incubated for 40 mins in presence of Mg/ATP mix by [gamma p33]-ATP based scintillation counting method"}, "[4]": {"molecular_target": "T2, Epidermal growth factor receptor (Homo sapiens, UniProt P00533)", "T2 sequence (P00533 whole entry)": "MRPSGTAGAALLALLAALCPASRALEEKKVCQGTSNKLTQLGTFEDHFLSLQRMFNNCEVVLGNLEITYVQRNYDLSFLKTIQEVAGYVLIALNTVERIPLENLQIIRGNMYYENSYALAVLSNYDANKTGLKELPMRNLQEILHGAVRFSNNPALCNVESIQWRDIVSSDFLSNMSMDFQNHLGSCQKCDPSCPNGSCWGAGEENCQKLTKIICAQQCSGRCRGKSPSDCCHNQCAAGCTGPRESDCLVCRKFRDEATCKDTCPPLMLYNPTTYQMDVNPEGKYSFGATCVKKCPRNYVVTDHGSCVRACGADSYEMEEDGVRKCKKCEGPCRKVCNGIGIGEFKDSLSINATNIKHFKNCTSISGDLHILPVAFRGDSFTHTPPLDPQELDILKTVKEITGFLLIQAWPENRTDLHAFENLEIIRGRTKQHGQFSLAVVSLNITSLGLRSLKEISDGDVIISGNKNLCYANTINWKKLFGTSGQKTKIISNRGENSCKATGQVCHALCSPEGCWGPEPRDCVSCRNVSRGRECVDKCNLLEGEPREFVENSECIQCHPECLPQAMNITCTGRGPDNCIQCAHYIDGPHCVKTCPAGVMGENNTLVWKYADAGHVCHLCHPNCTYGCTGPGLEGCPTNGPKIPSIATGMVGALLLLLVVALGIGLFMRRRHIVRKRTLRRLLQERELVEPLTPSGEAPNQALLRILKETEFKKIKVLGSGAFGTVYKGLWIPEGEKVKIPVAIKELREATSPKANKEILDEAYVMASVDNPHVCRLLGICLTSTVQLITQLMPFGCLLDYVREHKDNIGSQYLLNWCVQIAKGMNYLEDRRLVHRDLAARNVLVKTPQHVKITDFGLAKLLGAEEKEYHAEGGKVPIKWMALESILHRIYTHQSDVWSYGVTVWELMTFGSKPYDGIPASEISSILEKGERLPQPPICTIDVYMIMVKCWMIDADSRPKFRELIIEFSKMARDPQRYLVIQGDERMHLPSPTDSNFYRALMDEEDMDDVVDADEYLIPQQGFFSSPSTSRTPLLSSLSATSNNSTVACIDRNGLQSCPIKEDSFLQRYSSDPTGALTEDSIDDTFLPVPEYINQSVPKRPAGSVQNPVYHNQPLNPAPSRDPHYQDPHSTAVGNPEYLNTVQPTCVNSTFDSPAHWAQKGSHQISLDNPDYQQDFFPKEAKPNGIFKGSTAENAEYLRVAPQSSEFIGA", "experiment": "Inhibition of EGFR (unknown origin) at 10 uM incubated for 40 mins in presence of Mg/ATP mix by [gamma p33]-ATP based scintillation counting method relative to control"}, "HCC 2998 [5]": {"tested_on": "HCC 2998", "experiment": "Antiproliferative activity against human HCC 2998 cells assessed as cell growth inhibition measured after 48 hrs by SRB assay", "assay_type": "functional, cell-based", "conditions": "HCC 2998, 48 h"}, "HCC 2998 [6]": {"tested_on": "HCC 2998", "experiment": "Antiproliferative activity against human HCC 2998 cells assessed as cell growth inhibition at 10 uM measured after 48 hrs by SRB assay relative to control", "assay_type": "functional"}, "[7]": {"tested_on": "Serine/threonine-protein kinase B-raf (Homo sapiens), P15056 [V600E]", "experiment": "Inhibition of BRAF V600E mutant (unknown origin) at 10 uM incubated for 40 mins in presence of Mg/ATP mix by [gamma p33]-ATP based scintillation counting method relative to control"}, "[8]": {"molecular_target": "T2, Epidermal growth factor receptor", "experiment": "Inhibition of EGFR (unknown origin) incubated for 40 mins in presence of Mg/ATP mix by [gamma p33]-ATP based scintillation counting method"}, "[9]": {"molecular_target": "Receptor tyrosine-protein kinase erbB-2 (Homo sapiens) (UniProt P04626)", "experiment": "Inhibition of ErbB2 (unknown origin) at 10 uM incubated for 40 mins in presence of Mg/ATP mix by [gamma p33]-ATP based scintillation counting method relative to control"}, "OVCAR-4 [10]": {"tested_on": "OVCAR-4", "experiment": "Antiproliferative activity against human OVCAR-4 cells assessed as cell growth inhibition at 10 uM measured after 48 hrs by SRB assay relative to control", "assay_type": "functional"}, "NCI-H522 [11]": {"tested_on": "NCI-H522", "experiment": "Antiproliferative activity against human NCI-H522 cells assessed as cell growth inhibition measured after 48 hrs by SRB assay", "assay_type": "functional, cell-based", "conditions": "NCI-H522, 48 h"}, "[12]": {"molecular_target": "T3, Receptor tyrosine-protein kinase erbB-4 (Homo sapiens, UniProt Q15303)", "T3 sequence (Q15303 whole entry)": "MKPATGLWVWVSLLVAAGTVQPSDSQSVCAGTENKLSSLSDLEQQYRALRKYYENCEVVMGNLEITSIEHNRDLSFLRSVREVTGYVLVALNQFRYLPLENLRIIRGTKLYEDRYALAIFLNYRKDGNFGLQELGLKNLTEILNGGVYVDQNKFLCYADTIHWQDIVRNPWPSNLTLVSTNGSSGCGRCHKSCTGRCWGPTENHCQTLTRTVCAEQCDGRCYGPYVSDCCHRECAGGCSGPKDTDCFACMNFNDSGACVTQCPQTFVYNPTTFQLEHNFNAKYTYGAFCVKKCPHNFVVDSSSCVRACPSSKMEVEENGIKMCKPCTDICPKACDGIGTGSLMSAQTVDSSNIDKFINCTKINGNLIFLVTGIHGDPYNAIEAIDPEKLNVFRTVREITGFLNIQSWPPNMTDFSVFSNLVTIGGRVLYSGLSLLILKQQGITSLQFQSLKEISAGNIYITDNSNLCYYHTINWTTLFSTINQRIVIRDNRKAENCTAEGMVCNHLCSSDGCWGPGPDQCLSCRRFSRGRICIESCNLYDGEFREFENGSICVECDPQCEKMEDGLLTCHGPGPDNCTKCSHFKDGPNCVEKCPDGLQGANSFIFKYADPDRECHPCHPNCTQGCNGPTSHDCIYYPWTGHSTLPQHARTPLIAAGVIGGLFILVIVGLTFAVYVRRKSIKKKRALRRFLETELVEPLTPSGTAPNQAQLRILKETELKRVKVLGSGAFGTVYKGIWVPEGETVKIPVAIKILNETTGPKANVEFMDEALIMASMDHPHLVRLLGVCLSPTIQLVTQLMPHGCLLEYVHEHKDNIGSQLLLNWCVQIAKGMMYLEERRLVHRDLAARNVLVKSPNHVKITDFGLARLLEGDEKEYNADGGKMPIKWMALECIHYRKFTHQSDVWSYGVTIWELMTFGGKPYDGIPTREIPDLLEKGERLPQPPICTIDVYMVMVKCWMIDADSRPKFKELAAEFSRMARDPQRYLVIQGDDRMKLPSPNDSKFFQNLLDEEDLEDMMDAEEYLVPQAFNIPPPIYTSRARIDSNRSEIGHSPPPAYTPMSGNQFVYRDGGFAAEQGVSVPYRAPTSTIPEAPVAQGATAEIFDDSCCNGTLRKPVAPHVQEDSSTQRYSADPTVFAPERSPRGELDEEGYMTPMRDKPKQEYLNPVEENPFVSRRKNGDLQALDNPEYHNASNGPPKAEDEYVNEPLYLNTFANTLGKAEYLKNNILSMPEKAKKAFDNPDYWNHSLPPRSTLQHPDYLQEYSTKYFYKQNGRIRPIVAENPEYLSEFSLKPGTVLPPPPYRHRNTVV", "experiment": "Inhibition of ErbB4 in human T47D cells assessed as suppression of neuregulin 1-induced autophosphorylation incubated for 90 mins by sandwich ELISA", "assay_type": "cell-based"}, "[13]": {"molecular_target": "Fibroblast growth factor receptor 1 (Homo sapiens) (UniProt P11362)", "experiment": "Inhibition of FGFR1 (unknown origin) at 10 uM incubated for 40 mins in presence of Mg/ATP mix by [gamma p33]-ATP based scintillation counting method relative to control"}, "[14]": {"molecular_target": "T3, Receptor tyrosine-protein kinase erbB-4", "experiment": "Inhibition of ErbB4 (unknown origin) at 10 uM incubated for 40 mins in presence of Mg/ATP mix by [gamma p33]-ATP based scintillation counting method relative to control"}, "[15]": {"molecular_target": "T3, Receptor tyrosine-protein kinase erbB-4", "experiment": "Potency index, ratio of staurosporine IC50 to test compound IC50 for inhibition of ErbB4 (unknown origin) at 10 uM incubated for 40 mins in presence of Mg/ATP mix by [gamma p33]-ATP based scintillation counting method"}, "[16]": {"molecular_target": "Voltage-gated inwardly rectifying potassium channel KCNH2 (Homo sapiens, UniProt Q12809)", "experiment": "Inhibition of human ERG incubated for 3 hrs by competitive fluorescence tracer binding based assay"}, "UO-31 [17]": {"tested_on": "UO-31", "experiment": "Antiproliferative activity against human UO-31 cells assessed as cell growth inhibition at 10 uM measured after 48 hrs by SRB assay relative to control", "assay_type": "functional"}, "UO-31 [18]": {"tested_on": "UO-31", "experiment": "Antiproliferative activity against human UO-31 cells assessed as cell growth inhibition measured after 48 hrs by SRB assay", "assay_type": "functional, cell-based", "conditions": "UO-31, 48 h"}, "[19]": {"molecular_target": "Vascular endothelial growth factor receptor 2 (Homo sapiens, UniProt P35968)", "sequence (P35968 whole entry)": "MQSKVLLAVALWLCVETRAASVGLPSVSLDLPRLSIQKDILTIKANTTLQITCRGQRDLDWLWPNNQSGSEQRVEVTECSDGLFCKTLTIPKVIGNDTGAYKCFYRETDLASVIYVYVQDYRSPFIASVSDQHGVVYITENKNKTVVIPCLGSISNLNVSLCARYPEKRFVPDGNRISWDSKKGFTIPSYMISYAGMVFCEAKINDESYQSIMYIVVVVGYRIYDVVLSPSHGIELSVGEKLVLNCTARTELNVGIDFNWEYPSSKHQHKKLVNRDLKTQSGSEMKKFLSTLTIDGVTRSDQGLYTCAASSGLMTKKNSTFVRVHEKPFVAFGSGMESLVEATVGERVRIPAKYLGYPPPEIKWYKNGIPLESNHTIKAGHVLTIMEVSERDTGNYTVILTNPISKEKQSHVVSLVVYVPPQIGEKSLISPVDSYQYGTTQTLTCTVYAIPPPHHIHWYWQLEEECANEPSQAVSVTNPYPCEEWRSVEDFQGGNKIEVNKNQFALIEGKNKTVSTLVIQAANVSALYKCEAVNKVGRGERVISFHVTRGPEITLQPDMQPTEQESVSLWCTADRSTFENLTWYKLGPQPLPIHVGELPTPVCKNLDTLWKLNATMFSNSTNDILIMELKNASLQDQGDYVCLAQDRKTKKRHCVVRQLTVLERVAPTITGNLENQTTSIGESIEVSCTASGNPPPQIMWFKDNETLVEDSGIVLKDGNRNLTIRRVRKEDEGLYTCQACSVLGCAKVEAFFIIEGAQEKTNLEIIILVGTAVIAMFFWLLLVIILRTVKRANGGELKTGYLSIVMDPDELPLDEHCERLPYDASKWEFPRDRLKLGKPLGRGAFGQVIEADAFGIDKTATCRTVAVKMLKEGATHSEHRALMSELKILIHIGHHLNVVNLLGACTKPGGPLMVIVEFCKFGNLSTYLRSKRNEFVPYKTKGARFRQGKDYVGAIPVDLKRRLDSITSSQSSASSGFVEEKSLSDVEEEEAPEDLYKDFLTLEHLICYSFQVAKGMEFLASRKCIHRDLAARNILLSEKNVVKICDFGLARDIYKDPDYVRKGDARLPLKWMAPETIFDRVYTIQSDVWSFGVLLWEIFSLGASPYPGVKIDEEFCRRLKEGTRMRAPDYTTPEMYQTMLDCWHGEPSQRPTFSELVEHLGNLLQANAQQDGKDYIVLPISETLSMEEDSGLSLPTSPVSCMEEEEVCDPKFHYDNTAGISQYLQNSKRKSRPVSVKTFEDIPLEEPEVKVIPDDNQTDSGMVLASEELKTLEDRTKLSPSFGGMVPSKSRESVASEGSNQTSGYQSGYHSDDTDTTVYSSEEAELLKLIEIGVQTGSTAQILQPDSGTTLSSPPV", "experiment": "Inhibition of KDR (unknown origin) at 10 uM incubated for 40 mins in presence of Mg/ATP mix by [gamma p33]-ATP based scintillation counting method relative to control"}, "NCI-H522 [20]": {"tested_on": "NCI-H522", "experiment": "Antiproliferative activity against human NCI-H522 cells assessed as cell growth inhibition at 10 uM measured after 48 hrs by SRB assay relative to control", "assay_type": "functional"}, "SK-MEL-5": {"tested_on": "SK-MEL-5", "experiment": "Antiproliferative activity against human SK-MEL-5 cells assessed as cell growth inhibition measured after 48 hrs by SRB assay", "assay_type": "functional, cell-based", "conditions": "SK-MEL-5, 48 h"}, "[21]": {"molecular_target": "T3, Receptor tyrosine-protein kinase erbB-4", "experiment": "Inhibition of ErbB4 (unknown origin) incubated for 40 mins in presence of Mg/ATP mix by [gamma p33]-ATP based scintillation counting method"}, "[22]": {"molecular_target": "Serine/threonine-protein kinase B-raf (Homo sapiens, UniProt P15056)", "experiment": "Inhibition of wild type B-RAF (unknown origin) at 10 uM incubated for 40 mins in presence of Mg/ATP mix by [gamma p33]-ATP based scintillation counting method relative to control"}, "DU-145": {"tested_on": "DU-145", "experiment": "Antiproliferative activity against human DU-145 cells assessed as cell growth inhibition at 10 uM measured after 48 hrs by SRB assay relative to control", "assay_type": "functional"}, "[23]": {"molecular_target": "RAF proto-oncogene serine/threonine-protein kinase (Homo sapiens, UniProt P04049)", "experiment": "Inhibition of RAF1 (unknown origin) at 10 uM incubated for 40 mins in presence of Mg/ATP mix by [gamma p33]-ATP based scintillation counting method relative to control"}, "U-251": {"tested_on": "U-251", "experiment": "Antiproliferative activity against human U-251 cells assessed as cell growth inhibition measured after 48 hrs by SRB assay", "assay_type": "functional, cell-based", "conditions": "U-251, 48 h"}, "[24]": {"molecular_target": "T1, Mitogen-activated protein kinase 10", "experiment": "Inhibition of JNK3 (unknown origin) at 10 uM incubated for 40 mins in presence of Mg/ATP mix by [gamma p33]-ATP based scintillation counting method relative to control"}, "[25]": {"molecular_target": "Serine/threonine-protein kinase B-raf (Homo sapiens, UniProt P15056, V600E)", "experiment": "Inhibition of BRAF V600E mutant (unknown origin) incubated for 40 mins in presence of Mg/ATP mix by [gamma p33]-ATP based scintillation counting method"}, "Cytochrome P450 2D6": {"molecular_target": "Cytochrome P450 2D6 (Homo sapiens, UniProt P10635)", "sequence (P10635 whole entry)": "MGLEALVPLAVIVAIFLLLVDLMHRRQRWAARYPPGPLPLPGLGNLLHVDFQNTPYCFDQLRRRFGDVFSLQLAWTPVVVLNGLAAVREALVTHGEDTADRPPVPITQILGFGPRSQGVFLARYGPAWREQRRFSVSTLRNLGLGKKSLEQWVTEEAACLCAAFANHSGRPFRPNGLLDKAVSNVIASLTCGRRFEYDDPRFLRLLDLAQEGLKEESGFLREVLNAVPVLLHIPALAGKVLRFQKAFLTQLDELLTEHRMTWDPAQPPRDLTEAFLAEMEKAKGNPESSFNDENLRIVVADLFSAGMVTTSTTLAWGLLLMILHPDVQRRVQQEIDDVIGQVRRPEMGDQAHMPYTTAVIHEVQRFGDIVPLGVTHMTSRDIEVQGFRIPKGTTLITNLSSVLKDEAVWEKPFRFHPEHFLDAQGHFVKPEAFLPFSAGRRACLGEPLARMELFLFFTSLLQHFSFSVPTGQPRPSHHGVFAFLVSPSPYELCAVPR", "experiment": "Inhibition of CYP2D6 (unknown origin) using EOMCC as a substrate incubated for 20 mins by fluorescence based analysis", "assay_type": "ADME"}, "CYP3A4": {"molecular_target": "CYP3A4 (Homo sapiens, UniProt P08684)", "experiment": "Potency index, ratio of test compound IC50 to ketoconazole IC50 for inhibition of CYP3A4 (unknown origin) using BOMCC as a substrate incubated for 20 mins by fluorescence based analysis", "assay_type": "ADME", "conditions": "probe BOMCC"}, "Homo sapiens": {"species_on_record": "Homo sapiens", "experiment": "Selectivity index, ratio of IC50 for inhibition of BRAF V600E mutant (unknown origin) to IC50 for inhibition of ErbB4 (unknown origin)", "conditions": "dose 10.0 µM, time 40.0 min"}, "OVCAR-4 [26]": {"tested_on": "OVCAR-4", "experiment": "Antiproliferative activity against human OVCAR-4 cells assessed as cell growth inhibition measured after 48 hrs by SRB assay", "assay_type": "functional, cell-based", "conditions": "OVCAR-4, 48 h"}}}
{"compound": "CS(=O)(=O)c1nccc(-c2c(-c3cccc(OCc4ccccc4)c3)nc3sccn23)n1", "values": [{"measurement": "IC50", "setting": "[1]", "value": 8.35, "unit": "µM"}, {"measurement": "growth at 10 µM", "setting": "[2]", "value": 63.4, "unit": "%"}, {"measurement": "IC50", "setting": "[3]", "value": 5.2, "unit": "µM"}, {"measurement": "inhibition", "setting": "[4]", "value": 63.6, "unit": "%"}, {"measurement": "IC50", "setting": "HCC 2998 [5]", "value": 1.78, "unit": "µM"}, {"measurement": "inhibition at 10 µM", "setting": "HCC 2998 [6]", "value": 67.6, "unit": "%"}, {"measurement": "inhibition", "setting": "[7]", "value": 62.1, "unit": "%"}, {"measurement": "IC50", "setting": "[8]", "value": 9.92, "unit": "µM"}, {"measurement": "inhibition", "setting": "[9]", "value": 2.75, "unit": "%"}, {"measurement": "inhibition at 10 µM", "setting": "OVCAR-4 [10]", "value": 26.2, "unit": "%"}, {"measurement": "IC50", "setting": "NCI-H522 [11]", "value": 4.91, "unit": "µM"}, {"measurement": "IC50", "setting": "[12]", "value": 0.0033, "unit": "µM"}, {"measurement": "inhibition", "setting": "[13]", "value": 3.33, "unit": "%"}, {"measurement": "inhibition", "setting": "[14]", "value": 96.1, "unit": "%"}, {"measurement": "Ratio IC50", "setting": "[15]", "value": 9}, {"measurement": "IC50", "setting": "[16]", "value": 12.4, "unit": "µM"}, {"measurement": "inhibition at 10 µM", "setting": "UO-31 [17]", "value": 96.3, "unit": "%"}, {"measurement": "IC50", "setting": "UO-31 [18]", "value": 1.55, "unit": "µM"}, {"measurement": "inhibition", "setting": "[19]", "value": 24.8, "unit": "%"}, {"measurement": "inhibition at 10 µM", "setting": "NCI-H522 [20]", "value": 94.1, "unit": "%"}, {"measurement": "IC50", "setting": "SK-MEL-5", "value": 0.51, "unit": "µM"}, {"measurement": "IC50", "setting": "[21]", "value": 0.0152, "unit": "µM"}, {"measurement": "inhibition", "setting": "[22]", "value": 34.3, "unit": "%"}, {"measurement": "inhibition at 10 µM", "setting": "DU-145", "value": 160, "unit": "%"}, {"measurement": "inhibition", "setting": "[23]", "value": 23, "unit": "%"}, {"measurement": "IC50", "setting": "U-251", "value": 6.08, "unit": "µM"}, {"measurement": "inhibition", "setting": "[24]", "value": 66, "unit": "%"}, {"measurement": "IC50", "setting": "[25]", "value": 13.2, "unit": "µM"}, {"measurement": "IC50", "setting": "Cytochrome P450 2D6", "value": "> 90", "unit": "µM"}, {"measurement": "selectivity ratio at 20 min", "setting": "CYP3A4", "value": 7480}, {"measurement": "Ratio IC50", "setting": "Homo sapiens", "value": 866}, {"measurement": "IC50", "setting": "OVCAR-4 [26]", "value": 3.78, "unit": "µM"}]}
